Patent publication US20200040348A1, “CONTROL OF VIRAL AND BACTERIAL INFECTION BY ANTIMICROBIAL PEPTIDES RETROCYCLIN AND/OR PROTEGRIN EXPRESSED IN CHLOROPLASTS” (THE TRUSTEES OF THE UNIVERSITY OF PENNSYLVANIA, priority 2010, published 2020)
“Also recorded” adds a separate entry of the source. Where no end group is shown, it is not given here.

Tests used:
Erwinia carotovora [1] = experiment: In planta assay for resistance to Erwinia soft rot (syringe or sandpaper inoculation of tobacco leaves); format: in vivo; conditions: mature transplastomic tobacco leaves; for necrosis at the site of inoculation: sand paper method, up to 10^8 E. carotovora cells; for necrosis surrounding the point of inoculation: syringe method, 10^8, 10^6, 10^4 and 10^2 E. carotovora cells, peptide expressed in chloroplasts
Erwinia carotovora [2] = experiment: Erwinia carotovora inoculation and bacterial count in tobacco leaves; format: in vivo; conditions: plants inoculated with 1.0×10^5 cfu/ml E. carotovora
Method: The leaves of untransformed and transplastomic tobacco plants were inoculated with 20 μl of bacterial suspension (1.0×10^5 cfu/ml) through a syringe. Each leaf disc (0.8 cm diameter) was punched off from the inoculated area of an individual plant after 0, 1 or 3 days of incubation. The bacterial population inside the leaf was calculated as follows. Leaf tissue was ground in 100 μl sterilized water in a microcentrifuge tube. The suspension was serially diluted with sterilized water and was then plated on nutrient broth agar plates (Difco). Colonies were counted after one day of incubation at 25° C.

[3] = tested on: tobacco mosaic virus (TMV); format: in vivo; conditions: transplastomic tobacco plants, within 20 days after inoculation
[4] = tested on: gram-positive or gram-negative bacteria; conditions: cited from earlier work
[5] = tested on: T-tropic and M-tropic strains of HIV-1; conditions: human CD4+ lymphocytes, in vitro; cited from earlier work
[6] = tested on: vegetative B. anthracis cells; conditions: cited from earlier work
HIV-1 = conditions: organ-like construct of human cervicovaginal tissue; cited from earlier work

Row | Substance | necrosis at the site of inoculation (Erwinia carotovora [1]) | necrosis surrounding the point of inoculation (Erwinia carotovora [1]) | symptoms of necrosis (Erwinia carotovora [2]) | symptoms of TMV infection [3] | minimum inhibitory concentrations [4] | concentration that inhibits proviral DNA formation and protects from infection [5] | minimum effective concentration [6] | amount that prevents HIV-1 infection (HIV-1)
1 | Protegrin-1 (RGGRLCYCRRRFCVCVGR; not fully specified (bridges); ends and bridges not checked; also: two disulfide bonds, pairing not given here) [PG1] | mild discoloration | no areas of necrosis | no apparent symptoms of necrosis | typical mosaic, necrosis and wrinkle symptoms; also recorded: not effective | 0.12 to 2 µg/mL | – | – | –
2 | Retrocyclin | – | – | – | – | – | 10 to 20 µg/mL | – | –
3 | Retrocyclin-1 | – | – | – | – | – | – | < 1 µg/mL | –
4 | Retrocyclin-101 [RC101] | no necrosis | no areas of necrosis | no apparent symptoms of necrosis | didn't show obvious symptoms of TMV infection; also recorded: resistant to TMV infection | – | – | – | 2 µg
